Data: ChEMBL document CHEMBL5357016, “Discovery of Novel PDEδ Autophagic Degraders: A Case Study of Autophagy-Tethering Compound (ATTEC)” (ACS Med Chem Lett, 2024)
The source made the active and inactive calls. No cut-off for these calls is given here.

Tests used:
[1] = Drug localization in lysosome of human HeLa cells assessed as green fluorescence pretreated with compound for 2 hrs followed by probe administration and measured after 1.5 hrs by fluorescence imaging analysis; type: ADME, subcellular; conditions: 3.5 h
[2] = Drug uptake in lysosome of human HeLa cells assessed as drug fusion by measuring red fluorescence pretreated with compound for 2 hrs followed by probe administration and measured after 1.5 hrs by fluorescence imaging analysis; type: ADME, subcellular; conditions: 3.5 h
[3] = test system: MIA PaCa-2; assay: Antiproliferative activity against human MIA PaCa-2 cells harboring KRAS mutant assessed as reduction in cell proliferation incubated for 72 hrs by CCK-8 assay; conditions: MIA PaCa-2, 72 h
[4] = test system: CAPAN-1; assay: Antiproliferative activity against human CAPAN-1 cells harboring KRAS mutant assessed as reduction in cell proliferation incubated for 72 hrs by CCK-8 assay; conditions: CAPAN-1, 72 h
[5] = test system: MIA PaCa-2; assay: Induction of apoptosis in human MIA PaCa-2 cells harboring KRAS mutant assessed as early apoptotic cells at 1 uM measured after 24 hrs by Annexin V-FITC/PI staining based flow cytometric analysis (Rvb= 4.62%); type: functional
[6] = test system: MIA PaCa-2; assay: Induction of apoptosis in human MIA PaCa-2 cells harboring KRAS mutant assessed as late apoptotic cells at 1 uM measured after 24 hrs by Annexin V-FITC/PI staining based flow cytometric analysis (Rvb= 10.56%); type: functional
[7] = test system: MIA PaCa-2; assay: Induction of apoptosis in human MIA PaCa-2 cells harboring KRAS mutant assessed as necrotic cells at 1 uM measured after 24 hrs by Annexin V-FITC/PI staining based flow cytometric analysis (Rvb= 0.3%); type: functional
[8] = test system: MIA PaCa-2; assay: Induction of apoptosis in human MIA PaCa-2 cells harboring KRAS mutant assessed as early apoptotic cells at 10 uM measured after 24 hrs by Annexin V-FITC/PI staining based flow cytometric analysis (Rvb= 4.62%); type: functional
[9] = test system: MIA PaCa-2; assay: Induction of apoptosis in human MIA PaCa-2 cells harboring KRAS mutant assessed as late apoptotic cells at 10 uM measured after 24 hrs by Annexin V-FITC/PI staining based flow cytometric analysis (Rvb= 10.56%); type: functional
[10] = test system: MIA PaCa-2; assay: Induction of apoptosis in human MIA PaCa-2 cells harboring KRAS mutant assessed as necrotic cells at 10 uM measured after 24 hrs by Annexin V-FITC/PI staining based flow cytometric analysis (Rvb= 0.3%); type: functional
[11] = test system: MIA PaCa-2; assay: Effect on PDEdelta mRNA expression in human MIA PaCa-2 cells measured after 24 hrs by RT-qPCR analysis; type: functional, cell-based

SMILES | Drug uptake [1] | Drug uptake [2] | IC50 [3] [nM] | IC50 [4] [nM] | Activity [5] [%] | Activity [6] [%] | Activity [7] [%] | Activity [8] [%] | Activity [9] [%] | Activity [10] [%] | Activity [11]
O=C(COc1c(Br)cc(/C=C2\C(=O)Nc3ccc(I)cc32)cc1Br)NCCCOCCOCCOCCCNC(=S)Nc1ccc2c(c1)C(=O)OC21c2ccc(O)cc2Oc2cc(O)ccc21 | Active | Active | – | – | – | – | – | – | – | – | –
Cc1ccc(-n2nc3c(=O)n(CCCC(=O)NCCOCCOCCNC(=O)COc4c(Br)cc(/C=C5\C(=O)Nc6ccc(I)cc65)cc4Br)nc(C)c3c2C)cc1 | – | – | 25000 | 3500 | – | – | – | – | – | – | –
Cc1ccc(-n2nc3c(=O)n(CCCC(=O)NCCCCCCNC(=O)COc4c(Br)cc(/C=C5\C(=O)Nc6ccc(I)cc65)cc4Br)nc(C)c3c2C)cc1 | – | – | 1400 | 800 | 3.8 | 18.43 | 0.43 | 9.76 | 23.49 | 11.64 | inactive
